Experimental data as given in ChEMBL document CHEMBL3885861, “Open TG-GATES”.

Species: Rattus norvegicus
Test: Open TG-GATES - Regimen: Daily Repeat
Assay type: toxicity, organism-based, Sprague-Dawley
Design: regimen Daily Repeat, gender Male, age 6 weeks
Conditions: in vivo, po, 150 mg/kg, […], route gavage, dose level Middle; for KIDNEY_L / KIDNEY_R / KIDNEY_TOTAL: tissue Kidney; for LIVER: tissue Liver; for A/G / ALP / ALT / AST / BUN / CRE / Ca / Cl / DBIL / GLC / IP / K / LDH / Na / PL / RALB / TBIL / TC / TG / TP / gamma-GTP: tissue Plasma

Compound: CC(=O)Oc1cc(C(C)C)c(OCCN(C)C)cc1C [MOXISYLYTE]
- Lym (tissue Blood, time 28 day): 81.6%
- MCH (tissue Blood, time 28 day): 19 pg
- MCHC (tissue Blood, time 28 day): 35.4%
- MCV (tissue Blood, time 28 day): 53.5 fL
- Mono (tissue Blood, time 28 day): 2.4%
- Neu (tissue Blood, time 28 day): 14.2%
- PT (tissue Blood, time 28 day): 15.6 s
- Plat (tissue Blood, time 28 day): 92.2 x10_4/uL
- RBC (tissue Blood, time 28 day): 793.6 x10_4/ul
- Ret (tissue Blood, time 28 day): 2.7%
- WBC (tissue Blood, time 28 day): 166.9 x10_2/uL
- KIDNEY_L (time 7 day): 1.1 g
- KIDNEY_R (time 7 day): 1.2 g
- KIDNEY_TOTAL (time 7 day): 2.3 g
- KIDNEY_L (time 14 day): 1.2 g
- KIDNEY_R (time 14 day): 1.3 g
- KIDNEY_TOTAL (time 14 day): 2.6 g
- KIDNEY_L (time 28 day): 1.4 g
- KIDNEY_R (time 28 day): 1.4 g
- KIDNEY_TOTAL (time 28 day): 2.8 g
- LIVER (time 7 day): 12.3 g
- LIVER (time 14 day): 13.7 g
- LIVER (time 28 day): 14.2 g
- A/G (time 7 day): 1.3
- ALP (time 7 day): 1576.8 IU/L
- ALT (time 7 day): 43.4 IU/L
- AST (time 7 day): 77.8 IU/L
- BUN (time 7 day): 17.2 mg/dL
- CRE (time 7 day): 0.2 mg/dL
- Ca (time 7 day): 10.6 mg/dL
- Cl (time 7 day): 106 meq/L
- DBIL (time 7 day): 0 mg/dL
- GLC (time 7 day): 192.2 mg/dL
- IP (time 7 day): 7.2 mg/dL
- K (time 7 day): 4.3 meq/L
- LDH (time 7 day): 192.2 IU/L
- Na (time 7 day): 141.4 meq/L
- PL (time 7 day): 155.4 mg/dL
- RALB (time 7 day): 3.1 g/dL
- TBIL (time 7 day): 0.006 mg/dL
- TC (time 7 day): 75.6 mg/dL
- TG (time 7 day): 147.6 mg/dL
- TP (time 7 day): 5.5 g/dL
- gamma-GTP (time 7 day): 1.4 IU/L
- A/G (time 14 day): 1.2
- ALP (time 14 day): 1330.2 IU/L
- ALT (time 14 day): 44.6 IU/L
- AST (time 14 day): 79.2 IU/L
- BUN (time 14 day): 18.8 mg/dL
- CRE (time 14 day): 0.2 mg/dL
- Ca (time 14 day): 10.6 mg/dL
- Cl (time 14 day): 107.4 meq/L
- DBIL (time 14 day): 0 mg/dL
- GLC (time 14 day): 173.2 mg/dL
- IP (time 14 day): 6 mg/dL
- K (time 14 day): 4.2 meq/L
- LDH (time 14 day): 181.2 IU/L
- Na (time 14 day): 141 meq/L
- PL (time 14 day): 146.2 mg/dL
- RALB (time 14 day): 3.1 g/dL
- TBIL (time 14 day): 0 mg/dL
- TC (time 14 day): 76.2 mg/dL
- TG (time 14 day): 151.4 mg/dL
- TP (time 14 day): 5.7 g/dL
- gamma-GTP (time 14 day): 1 IU/L
- A/G (time 28 day): 1
- ALP (time 28 day): 1105.4 IU/L
- ALT (time 28 day): 41 IU/L
- AST (time 28 day): 70.4 IU/L
- BUN (time 28 day): 17.4 mg/dL
- CRE (time 28 day): 0.2 mg/dL
- Ca (time 28 day): 10.4 mg/dL
- Cl (time 28 day): 107 meq/L
- DBIL (time 28 day): 0.002 mg/dL
- GLC (time 28 day): 188.2 mg/dL
- IP (time 28 day): 6.1 mg/dL
- K (time 28 day): 4.1 meq/L
- LDH (time 28 day): 137 IU/L
- Na (time 28 day): 141.8 meq/L
- PL (time 28 day): 143 mg/dL
- RALB (time 28 day): 3.1 g/dL
- TBIL (time 28 day): 0.006 mg/dL
- TC (time 28 day): 71.4 mg/dL
- TG (time 28 day): 150.4 mg/dL
- TP (time 28 day): 6 g/dL
- gamma-GTP (time 28 day): 2.2 IU/L
